Calls of active or inactive are those of the source. Rule as the data show it, for most assays here: actives have a measured Kd and inactives only a lower limit.
Legend:
[1] = biological target: Serine/threonine-protein kinase SIK2 (Homo sapiens, UniProt Q9H0K1)
[2] = biological target: Protein-tyrosine kinase 2-beta (Homo sapiens, UniProt Q14289)
[3] = biological target: S-adenosylmethionine synthase isoform type-2 (Homo sapiens, UniProt P31153)
[4] = biological target: MAP kinase-activated protein kinase 2 (Homo sapiens, UniProt P49137)
[5] = biological target: T1, Serine/threonine-protein kinase ICK (Homo sapiens, UniProt Q9UPZ9)
T1 sequence (Q9UPZ9 whole entry): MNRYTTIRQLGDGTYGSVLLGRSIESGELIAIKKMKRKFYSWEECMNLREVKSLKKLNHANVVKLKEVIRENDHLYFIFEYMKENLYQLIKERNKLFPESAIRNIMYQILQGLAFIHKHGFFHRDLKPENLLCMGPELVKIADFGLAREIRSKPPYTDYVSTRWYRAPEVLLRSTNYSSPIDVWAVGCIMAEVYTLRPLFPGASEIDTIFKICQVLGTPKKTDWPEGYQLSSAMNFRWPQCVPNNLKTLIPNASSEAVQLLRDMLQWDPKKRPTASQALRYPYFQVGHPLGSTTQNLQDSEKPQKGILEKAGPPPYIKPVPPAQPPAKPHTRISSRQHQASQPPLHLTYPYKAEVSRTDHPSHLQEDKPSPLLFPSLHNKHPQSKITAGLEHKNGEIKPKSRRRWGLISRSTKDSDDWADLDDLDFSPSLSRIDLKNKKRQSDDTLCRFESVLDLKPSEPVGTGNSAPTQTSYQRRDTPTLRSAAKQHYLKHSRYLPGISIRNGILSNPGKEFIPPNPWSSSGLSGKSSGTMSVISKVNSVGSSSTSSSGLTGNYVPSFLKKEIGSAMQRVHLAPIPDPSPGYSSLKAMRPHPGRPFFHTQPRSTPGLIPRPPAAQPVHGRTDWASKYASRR

[6] = biological target: Glycogen synthase kinase-3 alpha (Homo sapiens, UniProt P49840)
[7] = biological target: Protein kinase C beta type (Homo sapiens, UniProt P05771)
[8] = biological target: T2, Mitogen-activated protein kinase kinase kinase 5 (Homo sapiens, UniProt Q99683)
T2 sequence (Q99683 whole entry): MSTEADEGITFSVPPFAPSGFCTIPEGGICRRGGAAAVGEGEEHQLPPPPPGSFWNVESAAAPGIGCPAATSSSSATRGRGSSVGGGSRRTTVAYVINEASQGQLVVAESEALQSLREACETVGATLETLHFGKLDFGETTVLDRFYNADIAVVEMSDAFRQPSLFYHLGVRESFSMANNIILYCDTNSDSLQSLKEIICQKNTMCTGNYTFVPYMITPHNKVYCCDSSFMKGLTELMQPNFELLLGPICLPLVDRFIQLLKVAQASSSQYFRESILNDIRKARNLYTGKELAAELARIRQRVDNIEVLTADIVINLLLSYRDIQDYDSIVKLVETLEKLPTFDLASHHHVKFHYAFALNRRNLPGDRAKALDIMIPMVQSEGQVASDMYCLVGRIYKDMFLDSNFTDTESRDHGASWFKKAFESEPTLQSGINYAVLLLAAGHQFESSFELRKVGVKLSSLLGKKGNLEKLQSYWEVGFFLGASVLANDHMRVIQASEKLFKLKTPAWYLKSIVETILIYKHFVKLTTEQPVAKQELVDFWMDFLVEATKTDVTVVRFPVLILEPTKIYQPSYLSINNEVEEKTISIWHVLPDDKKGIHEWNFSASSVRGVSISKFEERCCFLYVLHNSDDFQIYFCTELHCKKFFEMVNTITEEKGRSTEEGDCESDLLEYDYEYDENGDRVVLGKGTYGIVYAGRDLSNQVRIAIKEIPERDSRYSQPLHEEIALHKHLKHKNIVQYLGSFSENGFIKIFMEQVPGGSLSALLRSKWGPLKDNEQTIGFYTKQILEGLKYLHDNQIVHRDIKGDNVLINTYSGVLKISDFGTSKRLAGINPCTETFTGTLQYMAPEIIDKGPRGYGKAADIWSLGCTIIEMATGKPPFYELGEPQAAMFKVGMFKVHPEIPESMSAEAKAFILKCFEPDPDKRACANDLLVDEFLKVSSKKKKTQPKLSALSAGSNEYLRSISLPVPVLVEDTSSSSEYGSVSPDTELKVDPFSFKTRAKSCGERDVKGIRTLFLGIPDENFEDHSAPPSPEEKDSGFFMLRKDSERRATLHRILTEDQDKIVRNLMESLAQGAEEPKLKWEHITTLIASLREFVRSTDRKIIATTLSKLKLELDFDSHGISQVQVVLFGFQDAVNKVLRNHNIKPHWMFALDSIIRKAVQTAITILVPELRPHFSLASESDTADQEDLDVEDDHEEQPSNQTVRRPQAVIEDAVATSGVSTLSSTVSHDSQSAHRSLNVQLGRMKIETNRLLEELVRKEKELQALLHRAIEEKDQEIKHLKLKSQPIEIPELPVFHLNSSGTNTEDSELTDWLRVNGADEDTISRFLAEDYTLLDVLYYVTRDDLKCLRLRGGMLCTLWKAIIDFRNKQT

[9] = biological target: Bone morphogenetic protein receptor type-1A (Homo sapiens, UniProt P36894)
[10] = biological target: T3, Serine/threonine-protein kinase 4 (Homo sapiens, UniProt Q13043)
T3 sequence (Q13043 whole entry): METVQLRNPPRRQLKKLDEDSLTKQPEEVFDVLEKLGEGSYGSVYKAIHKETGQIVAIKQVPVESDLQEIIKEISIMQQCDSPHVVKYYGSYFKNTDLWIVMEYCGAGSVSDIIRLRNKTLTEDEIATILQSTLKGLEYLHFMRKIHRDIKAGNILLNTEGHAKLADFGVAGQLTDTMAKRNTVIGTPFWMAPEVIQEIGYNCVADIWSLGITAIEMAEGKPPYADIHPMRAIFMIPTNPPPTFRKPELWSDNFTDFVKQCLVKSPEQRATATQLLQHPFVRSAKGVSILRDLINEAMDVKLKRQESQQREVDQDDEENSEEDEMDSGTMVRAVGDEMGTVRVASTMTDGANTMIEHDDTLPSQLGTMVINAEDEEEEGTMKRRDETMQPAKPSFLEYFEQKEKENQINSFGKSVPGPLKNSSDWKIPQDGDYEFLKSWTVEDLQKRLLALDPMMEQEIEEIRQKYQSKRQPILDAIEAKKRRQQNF

[11] = biological target: Serine/threonine-protein kinase 26 (Homo sapiens, UniProt Q9P289)
Also: in the data inactive means no Kd found up to 30 µM.

Chain of MAP kinase-activated protein kinase 2 (P49137 whole entry): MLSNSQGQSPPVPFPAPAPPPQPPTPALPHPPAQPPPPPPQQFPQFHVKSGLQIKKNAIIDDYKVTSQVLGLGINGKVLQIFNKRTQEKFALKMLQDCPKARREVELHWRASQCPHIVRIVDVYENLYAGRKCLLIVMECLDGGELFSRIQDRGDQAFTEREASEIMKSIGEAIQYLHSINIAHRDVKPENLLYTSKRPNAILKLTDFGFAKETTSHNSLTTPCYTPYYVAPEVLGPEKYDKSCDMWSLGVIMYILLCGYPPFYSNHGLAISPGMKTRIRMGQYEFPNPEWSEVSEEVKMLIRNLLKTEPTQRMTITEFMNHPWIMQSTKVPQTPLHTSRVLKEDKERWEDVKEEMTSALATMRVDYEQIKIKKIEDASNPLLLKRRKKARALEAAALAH
Chain of Glycogen synthase kinase-3 alpha (P49840 whole entry): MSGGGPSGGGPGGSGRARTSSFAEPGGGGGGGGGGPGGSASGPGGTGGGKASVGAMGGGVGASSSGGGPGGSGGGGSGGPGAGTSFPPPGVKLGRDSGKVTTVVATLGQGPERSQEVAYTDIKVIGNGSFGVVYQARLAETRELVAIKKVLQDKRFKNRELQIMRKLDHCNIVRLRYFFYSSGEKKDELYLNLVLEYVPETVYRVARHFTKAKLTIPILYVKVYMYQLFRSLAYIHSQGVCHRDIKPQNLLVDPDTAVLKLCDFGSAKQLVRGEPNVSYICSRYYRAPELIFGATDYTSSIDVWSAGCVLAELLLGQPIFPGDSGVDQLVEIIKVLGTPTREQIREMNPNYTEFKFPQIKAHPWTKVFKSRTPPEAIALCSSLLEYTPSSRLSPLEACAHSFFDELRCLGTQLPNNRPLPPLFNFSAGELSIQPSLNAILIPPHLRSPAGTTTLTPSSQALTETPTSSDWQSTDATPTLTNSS
Chain of Serine/threonine-protein kinase 26 (Q9P289 whole entry): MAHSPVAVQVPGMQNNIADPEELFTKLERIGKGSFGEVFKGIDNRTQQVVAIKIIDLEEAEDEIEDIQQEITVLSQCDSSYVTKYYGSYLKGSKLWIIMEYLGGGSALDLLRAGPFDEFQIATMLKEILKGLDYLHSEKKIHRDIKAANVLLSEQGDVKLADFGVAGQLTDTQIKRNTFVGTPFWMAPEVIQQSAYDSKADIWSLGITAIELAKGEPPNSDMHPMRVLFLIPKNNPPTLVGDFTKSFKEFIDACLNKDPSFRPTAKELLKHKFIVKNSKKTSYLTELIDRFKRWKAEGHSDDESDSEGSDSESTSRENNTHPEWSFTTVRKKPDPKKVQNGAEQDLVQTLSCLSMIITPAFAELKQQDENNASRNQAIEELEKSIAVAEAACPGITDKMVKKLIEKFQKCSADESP
Chain of Protein kinase C beta type (P05771 whole entry): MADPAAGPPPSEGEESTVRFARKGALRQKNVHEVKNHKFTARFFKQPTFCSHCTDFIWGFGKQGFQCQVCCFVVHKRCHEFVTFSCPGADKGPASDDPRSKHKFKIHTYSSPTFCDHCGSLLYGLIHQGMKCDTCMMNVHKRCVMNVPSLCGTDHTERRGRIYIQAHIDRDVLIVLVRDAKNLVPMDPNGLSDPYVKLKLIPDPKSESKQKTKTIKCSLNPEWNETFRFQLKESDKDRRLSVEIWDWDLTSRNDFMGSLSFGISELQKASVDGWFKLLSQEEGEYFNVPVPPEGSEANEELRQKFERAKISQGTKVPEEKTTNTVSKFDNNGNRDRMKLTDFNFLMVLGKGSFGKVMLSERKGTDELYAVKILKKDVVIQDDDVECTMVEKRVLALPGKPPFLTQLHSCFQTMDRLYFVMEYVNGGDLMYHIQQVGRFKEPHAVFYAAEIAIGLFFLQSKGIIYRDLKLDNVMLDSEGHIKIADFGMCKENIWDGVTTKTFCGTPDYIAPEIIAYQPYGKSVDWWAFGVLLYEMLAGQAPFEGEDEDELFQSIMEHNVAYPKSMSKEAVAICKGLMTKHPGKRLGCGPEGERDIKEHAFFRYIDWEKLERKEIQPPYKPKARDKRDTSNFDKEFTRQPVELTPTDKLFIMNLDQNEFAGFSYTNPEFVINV
Chain of Bone morphogenetic protein receptor type-1A (P36894 whole entry): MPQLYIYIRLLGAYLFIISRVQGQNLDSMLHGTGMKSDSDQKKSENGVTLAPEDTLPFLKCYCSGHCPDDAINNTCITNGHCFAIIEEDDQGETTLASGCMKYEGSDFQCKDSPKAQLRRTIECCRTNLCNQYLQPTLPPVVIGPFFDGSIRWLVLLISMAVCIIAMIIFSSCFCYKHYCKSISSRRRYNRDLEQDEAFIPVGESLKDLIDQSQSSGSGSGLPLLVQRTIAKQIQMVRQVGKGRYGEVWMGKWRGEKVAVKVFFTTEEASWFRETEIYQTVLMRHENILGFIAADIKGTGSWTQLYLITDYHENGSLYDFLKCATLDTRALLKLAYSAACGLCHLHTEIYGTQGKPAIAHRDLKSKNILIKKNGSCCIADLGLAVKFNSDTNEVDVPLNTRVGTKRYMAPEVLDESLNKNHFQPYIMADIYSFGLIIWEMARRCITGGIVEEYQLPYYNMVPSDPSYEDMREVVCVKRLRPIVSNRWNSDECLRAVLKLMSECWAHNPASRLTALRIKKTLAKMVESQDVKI
Chain of Protein-tyrosine kinase 2-beta (Q14289 whole entry, canonical isoform): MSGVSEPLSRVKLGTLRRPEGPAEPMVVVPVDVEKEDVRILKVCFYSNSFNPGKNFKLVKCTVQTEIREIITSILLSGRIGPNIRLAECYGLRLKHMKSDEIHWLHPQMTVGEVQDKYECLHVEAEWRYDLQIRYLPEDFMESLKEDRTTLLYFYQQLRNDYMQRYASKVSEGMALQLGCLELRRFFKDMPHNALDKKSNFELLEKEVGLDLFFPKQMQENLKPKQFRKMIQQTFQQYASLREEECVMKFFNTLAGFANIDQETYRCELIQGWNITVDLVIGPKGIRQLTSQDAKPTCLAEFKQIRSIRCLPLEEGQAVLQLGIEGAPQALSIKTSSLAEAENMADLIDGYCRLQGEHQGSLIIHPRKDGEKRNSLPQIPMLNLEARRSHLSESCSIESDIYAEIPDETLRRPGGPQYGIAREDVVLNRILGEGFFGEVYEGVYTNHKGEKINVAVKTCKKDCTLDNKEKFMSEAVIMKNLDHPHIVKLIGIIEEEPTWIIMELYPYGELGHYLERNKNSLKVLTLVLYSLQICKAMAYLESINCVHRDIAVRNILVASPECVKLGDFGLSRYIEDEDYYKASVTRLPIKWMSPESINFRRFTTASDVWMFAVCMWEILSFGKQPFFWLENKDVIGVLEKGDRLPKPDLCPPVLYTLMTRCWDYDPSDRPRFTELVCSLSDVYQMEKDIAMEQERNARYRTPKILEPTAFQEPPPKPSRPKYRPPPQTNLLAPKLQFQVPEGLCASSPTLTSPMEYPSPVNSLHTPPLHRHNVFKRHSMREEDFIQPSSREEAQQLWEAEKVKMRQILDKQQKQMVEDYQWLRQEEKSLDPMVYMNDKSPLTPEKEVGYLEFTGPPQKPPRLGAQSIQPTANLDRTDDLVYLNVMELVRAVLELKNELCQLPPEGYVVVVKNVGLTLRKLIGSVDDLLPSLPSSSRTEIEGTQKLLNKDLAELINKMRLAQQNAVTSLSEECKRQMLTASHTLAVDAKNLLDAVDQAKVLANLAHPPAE
Chain of Serine/threonine-protein kinase SIK2 (Q9H0K1 whole entry): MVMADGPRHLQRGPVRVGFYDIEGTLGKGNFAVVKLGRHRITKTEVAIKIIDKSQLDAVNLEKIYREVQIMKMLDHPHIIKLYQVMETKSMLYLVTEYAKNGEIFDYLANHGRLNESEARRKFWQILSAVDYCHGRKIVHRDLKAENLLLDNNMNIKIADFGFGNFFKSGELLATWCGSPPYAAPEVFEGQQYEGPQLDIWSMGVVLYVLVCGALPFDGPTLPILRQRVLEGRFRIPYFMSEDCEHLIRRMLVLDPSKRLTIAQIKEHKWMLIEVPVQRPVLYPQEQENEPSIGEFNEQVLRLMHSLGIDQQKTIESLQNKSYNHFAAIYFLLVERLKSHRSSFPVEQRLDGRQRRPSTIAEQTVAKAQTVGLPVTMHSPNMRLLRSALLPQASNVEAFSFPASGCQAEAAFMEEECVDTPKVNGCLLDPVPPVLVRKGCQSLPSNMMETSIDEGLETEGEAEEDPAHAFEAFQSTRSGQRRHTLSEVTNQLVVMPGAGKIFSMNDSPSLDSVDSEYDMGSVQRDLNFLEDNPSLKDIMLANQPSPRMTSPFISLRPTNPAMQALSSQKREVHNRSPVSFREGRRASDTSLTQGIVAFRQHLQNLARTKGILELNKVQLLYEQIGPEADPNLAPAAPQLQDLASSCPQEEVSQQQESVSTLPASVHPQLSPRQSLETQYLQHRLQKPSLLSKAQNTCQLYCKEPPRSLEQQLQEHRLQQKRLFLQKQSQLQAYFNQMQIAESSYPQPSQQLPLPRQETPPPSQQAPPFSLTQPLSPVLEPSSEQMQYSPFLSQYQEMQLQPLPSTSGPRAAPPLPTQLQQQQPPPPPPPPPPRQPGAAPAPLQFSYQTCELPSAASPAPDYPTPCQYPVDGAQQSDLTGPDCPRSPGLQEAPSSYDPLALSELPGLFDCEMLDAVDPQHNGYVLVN
Chain of S-adenosylmethionine synthase isoform type-2 (P31153 whole entry, canonical isoform): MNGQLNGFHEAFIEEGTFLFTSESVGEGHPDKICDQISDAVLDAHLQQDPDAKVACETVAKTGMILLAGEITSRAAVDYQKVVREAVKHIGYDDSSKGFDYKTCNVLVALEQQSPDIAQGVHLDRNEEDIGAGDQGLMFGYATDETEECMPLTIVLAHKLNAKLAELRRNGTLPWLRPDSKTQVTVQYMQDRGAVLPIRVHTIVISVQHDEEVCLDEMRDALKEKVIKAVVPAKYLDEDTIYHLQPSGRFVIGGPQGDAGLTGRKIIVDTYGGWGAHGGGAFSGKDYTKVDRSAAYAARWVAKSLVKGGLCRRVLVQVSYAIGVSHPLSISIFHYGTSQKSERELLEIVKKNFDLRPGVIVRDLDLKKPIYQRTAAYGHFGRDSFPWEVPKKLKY

| Compound | Kd [1] | Kd [2] | Kd [3] | Kd [4] | Kd [5] | Kd [6] | Kd [7] | Kd [8] | Kd [9] | Kd [10] | Kd [11] |
| --- | --- | --- | --- | --- | --- | --- | --- | --- | --- | --- | --- |
| COc1cc(F)c(F)c(Nc2ccc(I)cc2F)c1NS(=O)(=O)C1(C[C@H](O)CO)CC1 [REFAMETINIB] | > 30 µM (inactive) | > 30 µM (inactive) | > 30 µM (inactive) | > 30 µM (inactive) | > 30 µM (inactive) | > 30 µM (inactive) | > 30 µM (inactive) | > 30 µM (inactive) | > 30 µM (inactive) | > 30 µM (inactive) | > 30 µM (inactive) |
| O[C@H]1CC[C@H](Nc2ncc3nc(Nc4c(F)cc(F)cc4F)n([C@H]4CCOC4)c3n2)CC1 [TANZISERTIB] | > 30 µM (inactive) | > 30 µM (inactive) | > 30 µM (inactive) | 0.934 µM (active) | > 30 µM (inactive) | > 30 µM (inactive) | > 30 µM (inactive) | > 30 µM (inactive) | > 30 µM (inactive) | > 30 µM (inactive) | > 30 µM (inactive) |
| C#Cc1cccc(Nc2ncnc3cc4c(cc23)OCCOCCOCCO4)c1 [ICOTINIB] | > 30 µM (inactive) | > 30 µM (inactive) | > 30 µM (inactive) | > 30 µM (inactive) | > 30 µM (inactive) | > 30 µM (inactive) | > 30 µM (inactive) | > 30 µM (inactive) | > 30 µM (inactive) | > 30 µM (inactive) | > 30 µM (inactive) |
| COc1cc2ncnc(Nc3ccc(O)cc3)c2cc1OC [WHI-P131] | > 30 µM (inactive) | > 30 µM (inactive) | > 30 µM (inactive) | > 30 µM (inactive) | > 30 µM (inactive) | > 30 µM (inactive) | > 30 µM (inactive) | > 30 µM (inactive) | > 30 µM (inactive) | > 30 µM (inactive) | > 30 µM (inactive) |
| C=CC(=O)Nc1cc(Nc2nccc(-c3cn(C)c4ccccc34)n2)c(OC)cc1N(C)CCN(C)C [OSIMERTINIB] | > 30 µM (inactive) | > 30 µM (inactive) | > 30 µM (inactive) | > 30 µM (inactive) | > 30 µM (inactive) | > 30 µM (inactive) | > 30 µM (inactive) | > 30 µM (inactive) | > 30 µM (inactive) | > 30 µM (inactive) | > 30 µM (inactive) |
| COc1ccc2c(OCc3nnc4ccc(-c5ccccc5)nn34)ccnc2c1 [AMG-208] | > 30 µM (inactive) | > 30 µM (inactive) | > 30 µM (inactive) | > 30 µM (inactive) | > 30 µM (inactive) | > 30 µM (inactive) | > 30 µM (inactive) | > 30 µM (inactive) | > 30 µM (inactive) | > 30 µM (inactive) | > 30 µM (inactive) |
| CCN1CCN(Cc2ccc(Nc3ncc(F)c(-c4cc(F)c5nc(C)n(C(C)C)c5c4)n3)nc2)CC1 [ABEMACICLIB] | > 30 µM (inactive) | > 30 µM (inactive) | > 30 µM (inactive) | > 30 µM (inactive) | 0.053 µM (active) | 0.013 µM (active) | 1.62 µM (active) | > 30 µM (inactive) | > 30 µM (inactive) | > 30 µM (inactive) | > 30 µM (inactive) |
| COc1cccc2cc(-c3nc([C@H]4CC[C@H](C(=O)O)CC4)n4ncnc(N)c34)[nH]c12 [OSI-027] | > 30 µM (inactive) | > 30 µM (inactive) | > 30 µM (inactive) | > 30 µM (inactive) | > 30 µM (inactive) | > 30 µM (inactive) | > 30 µM (inactive) | > 30 µM (inactive) | > 30 µM (inactive) | > 30 µM (inactive) | > 30 µM (inactive) |
| c1cc(OCCN2CCCCC2)cc(-c2n[nH]c3ccc(-c4nc[nH]n4)cc23)c1 [CC-401] | > 30 µM (inactive) | > 30 µM (inactive) | > 30 µM (inactive) | > 30 µM (inactive) | > 30 µM (inactive) | > 30 µM (inactive) | > 30 µM (inactive) | > 30 µM (inactive) | > 30 µM (inactive) | > 30 µM (inactive) | > 30 µM (inactive) |
| COc1ccc(-c2ccc3ncc4c(c3c2)n(-c2ccc(N3CCNCC3)c(C(F)(F)F)c2)c(=O)n4C)cn1 [BGT-226 FREE BASE] | > 30 µM (inactive) | > 30 µM (inactive) | > 30 µM (inactive) | > 30 µM (inactive) | > 30 µM (inactive) | 3.4 µM (active) | > 30 µM (inactive) | > 30 µM (inactive) | > 30 µM (inactive) | > 30 µM (inactive) | > 30 µM (inactive) |
| CC(C)CC(=O)Nc1[nH]nc2c1CN(C(=O)C1CCN(C)CC1)C2(C)C [PHA-793887] | > 30 µM (inactive) | > 30 µM (inactive) | > 30 µM (inactive) | > 30 µM (inactive) | > 30 µM (inactive) | 0.029 µM (active) | > 30 µM (inactive) | > 30 µM (inactive) | > 30 µM (inactive) | > 30 µM (inactive) | 0.175 µM |

From ChEMBL document CHEMBL3991601, “The target landscape of clinical kinase drugs” (Science, 2017)
